Here are results for 7 compounds from ChEMBL document CHEMBL1138127, “Conversion of potent MMP inhibitors into selective TACE inhibitors” (Bioorg Med Chem Lett, 2006).

In assay [1] the target is T1, Interstitial collagenase (Homo sapiens, UniProt P03956).
T1 sequence (P03956 whole entry): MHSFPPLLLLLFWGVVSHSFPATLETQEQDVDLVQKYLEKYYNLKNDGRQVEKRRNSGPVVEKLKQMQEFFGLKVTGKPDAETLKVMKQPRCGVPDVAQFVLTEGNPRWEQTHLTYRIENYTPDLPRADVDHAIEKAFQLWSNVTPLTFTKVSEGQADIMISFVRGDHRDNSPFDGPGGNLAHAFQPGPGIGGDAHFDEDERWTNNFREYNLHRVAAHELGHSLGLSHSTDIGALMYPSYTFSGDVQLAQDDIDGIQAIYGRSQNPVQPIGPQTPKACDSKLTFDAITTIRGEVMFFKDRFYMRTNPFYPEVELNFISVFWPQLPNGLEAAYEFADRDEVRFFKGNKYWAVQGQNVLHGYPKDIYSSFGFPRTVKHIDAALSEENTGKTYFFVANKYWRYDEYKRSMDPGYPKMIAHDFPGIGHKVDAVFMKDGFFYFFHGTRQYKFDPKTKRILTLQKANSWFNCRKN
The assay is described as follows: Binding affinity to MMP1.

Assay [2] concerns the target Disintegrin and metalloproteinase domain-containing protein 17 (Homo sapiens, UniProt P78536). The assay is described as follows: Inhibitory activity against TACE.
For assay [3], the target named is 72 kDa type IV collagenase (Homo sapiens, UniProt P08253). The assay is described as follows: Binding affinity to MMP2.
Chain of 72 kDa type IV collagenase (P08253 whole entry): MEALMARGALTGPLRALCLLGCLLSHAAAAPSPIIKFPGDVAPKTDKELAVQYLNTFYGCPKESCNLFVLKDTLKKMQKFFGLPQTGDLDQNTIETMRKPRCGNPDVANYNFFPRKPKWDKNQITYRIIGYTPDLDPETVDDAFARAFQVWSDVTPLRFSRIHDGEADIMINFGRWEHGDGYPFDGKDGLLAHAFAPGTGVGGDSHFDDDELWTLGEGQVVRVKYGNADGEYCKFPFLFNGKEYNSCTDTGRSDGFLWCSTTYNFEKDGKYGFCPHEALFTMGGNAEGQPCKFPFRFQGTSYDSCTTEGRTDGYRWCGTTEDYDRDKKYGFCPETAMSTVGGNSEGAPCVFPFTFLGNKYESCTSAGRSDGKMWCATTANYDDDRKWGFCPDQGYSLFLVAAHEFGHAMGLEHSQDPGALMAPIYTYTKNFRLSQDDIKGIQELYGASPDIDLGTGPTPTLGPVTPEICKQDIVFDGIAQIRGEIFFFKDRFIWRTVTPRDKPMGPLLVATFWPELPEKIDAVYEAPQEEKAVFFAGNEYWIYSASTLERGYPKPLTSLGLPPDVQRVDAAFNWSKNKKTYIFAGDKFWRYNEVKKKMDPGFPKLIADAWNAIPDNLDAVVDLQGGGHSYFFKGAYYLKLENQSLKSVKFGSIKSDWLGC
In assay [4] the target is Matrix metalloproteinase-9 (Homo sapiens, UniProt P14780). The assay is described as follows: Binding affinity to MMP9.
Chain of Matrix metalloproteinase-9 (P14780 whole entry): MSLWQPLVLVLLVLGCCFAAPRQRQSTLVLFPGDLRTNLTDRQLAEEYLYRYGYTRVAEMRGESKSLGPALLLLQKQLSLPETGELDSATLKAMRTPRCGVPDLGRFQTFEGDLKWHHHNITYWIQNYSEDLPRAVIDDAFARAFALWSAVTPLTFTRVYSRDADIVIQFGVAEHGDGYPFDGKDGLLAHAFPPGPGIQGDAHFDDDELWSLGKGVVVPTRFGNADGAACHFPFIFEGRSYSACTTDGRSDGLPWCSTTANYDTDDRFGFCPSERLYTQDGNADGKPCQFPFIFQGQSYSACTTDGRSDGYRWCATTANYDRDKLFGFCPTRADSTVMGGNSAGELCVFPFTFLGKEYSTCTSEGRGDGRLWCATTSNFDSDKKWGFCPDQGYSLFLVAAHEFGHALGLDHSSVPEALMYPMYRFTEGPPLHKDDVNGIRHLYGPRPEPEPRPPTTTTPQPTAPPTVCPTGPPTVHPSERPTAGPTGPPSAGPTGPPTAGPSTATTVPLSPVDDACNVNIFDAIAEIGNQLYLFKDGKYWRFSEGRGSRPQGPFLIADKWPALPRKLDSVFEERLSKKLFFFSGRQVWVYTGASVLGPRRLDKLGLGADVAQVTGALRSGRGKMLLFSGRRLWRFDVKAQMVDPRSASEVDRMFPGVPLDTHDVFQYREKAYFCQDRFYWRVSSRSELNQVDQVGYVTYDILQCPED
Assay [5] has as its target Collagenase 3 (Homo sapiens, UniProt P45452). The assay is described as follows: Binding affinity to MMP13.

Chain of Disintegrin and metalloproteinase domain-containing protein 17 (P78536 whole entry, the tested form may be a part): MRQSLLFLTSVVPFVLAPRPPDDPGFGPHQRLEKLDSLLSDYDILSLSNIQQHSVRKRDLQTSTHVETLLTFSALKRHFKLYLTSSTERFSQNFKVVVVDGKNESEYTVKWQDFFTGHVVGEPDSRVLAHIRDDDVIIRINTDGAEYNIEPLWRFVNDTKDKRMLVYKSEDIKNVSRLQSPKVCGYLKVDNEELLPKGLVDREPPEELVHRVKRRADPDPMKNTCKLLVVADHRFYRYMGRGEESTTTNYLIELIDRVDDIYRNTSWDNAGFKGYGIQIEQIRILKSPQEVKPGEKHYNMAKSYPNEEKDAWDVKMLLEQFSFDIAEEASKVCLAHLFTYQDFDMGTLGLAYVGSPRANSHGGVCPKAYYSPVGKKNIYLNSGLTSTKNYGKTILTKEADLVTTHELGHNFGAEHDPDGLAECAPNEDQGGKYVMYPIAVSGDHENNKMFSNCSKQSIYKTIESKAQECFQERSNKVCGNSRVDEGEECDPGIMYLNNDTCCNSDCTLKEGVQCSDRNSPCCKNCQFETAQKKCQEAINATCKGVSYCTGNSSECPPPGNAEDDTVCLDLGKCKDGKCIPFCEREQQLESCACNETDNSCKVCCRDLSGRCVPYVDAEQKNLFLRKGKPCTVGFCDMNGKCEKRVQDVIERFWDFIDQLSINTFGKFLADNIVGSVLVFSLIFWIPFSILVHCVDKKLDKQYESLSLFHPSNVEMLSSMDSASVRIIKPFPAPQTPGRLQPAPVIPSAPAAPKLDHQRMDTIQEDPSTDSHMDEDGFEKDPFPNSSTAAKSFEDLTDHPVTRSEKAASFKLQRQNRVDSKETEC

A word on the Ki: it is the dissociation constant of the complex between target and ligand, obtained from inhibition or displacement. High values mean lower affinity, low ones higher affinity. Broadly, the IC50 is the midpoint of a concentration-inhibition curve. A low value points to inhibition by little substance. `COc1ccc(-c2ccc(CN3C(C(=O)NO)CCS3(=O)=O)cc2)cc1` (configuration not stated) yielded an inhibition constant Ki in assay [1] of more than 4950 nM. This compound displayed an IC50 in assay [2] of more than 1000 nM.
For `Cc1cc(COc2ccc(N3C(C(=O)NO)CCCS3(=O)=O)cc2)c2ccccc2n1` (configuration not stated), the inhibitory constant (Ki) was more than 4950 nM in assay [1], more than 3330 nM in assay [3], more than 2130 nM in assay [4] and more than 5030 nM in assay [5]. This compound gave an IC50 in assay [2] of 3.7 nM.
In the same order, the values of `Cc1cc(COc2ccc(CC3C(C(=O)NO)CCS3(=O)=O)cc2)c2ccccc2n1` (configuration not stated) are more than 4950 nM, more than 3330 nM, more than 2130 nM, more than 5030 nM and 150 nM.
With `Cc1cc(COc2ccc(N3C(C(=O)NO)CCS3(=O)=O)cc2)c2ccccc2n1` (configuration not stated), the Ki is more than 4950 nM in assay [1], more than 3330 nM in assay [3], more than 2130 nM in assay [4] and more than 5030 nM in assay [5]. This compound returned an IC50 in assay [2] of 5.9 nM.
`Cc1cc(COc2ccc(CN3C(C(=O)NO)CCS3(=O)=O)cc2)c2ccccc2n1` (configuration not stated): the inhibitory constant (Ki) was more than 4950 nM in assay [1], more than 3330 nM in assay [3], more than 2130 nM in assay [4] and more than 5030 nM in assay [5]. In assay [2], this compound showed an IC50 of 900 nM.
In the same order, the values of `Cc1cc(COc2ccc(CCN3C(C(=O)NO)CCS3(=O)=O)cc2)c2ccccc2n1` (configuration not stated) are more than 4950 nM, more than 3330 nM, more than 2130 nM, more than 5030 nM and 480 nM.
In the same order, the values of `Cc1cc(COc2ccc(N3C(C(=O)NO)CNS3(=O)=O)cc2)c2ccccc2n1` (configuration not stated) are more than 4950 nM, more than 3330 nM, more than 2130 nM, more than 5030 nM and 8.3 nM.
